According to US8445636B2, “Antimicrobial and anticancer lipopeptides” (Yeda Research & Development Co. Ltd., priority 2003, dated 2013):
≈ marks a conversion by molar mass, not a printed value. Where two headings read alike, the source gives them in different places. Non-standard residues stand in square brackets, D forms with d. Residues, ends and D or L forms follow the SMILES beside them. *: point of attachment. Palmitoyl = CCCCCCCCCCCCCCCC(=O)*; Myristoyl = CCCCCCCCCCCCCC(=O)*; Lauroyl = CCCCCCCCCCCC(=O)*

Tests used:
Format in all cases: cell-based
[1] = tested on: Cryptococcus neoformans ATCC MYA-422; assay: microbe, parasite or virus in culture; settings: ATCC MYA-422, pH 7.4
[2] = Cytotoxicity, XTT viability, non-cancer cells; settings: mouse, non-cancer cell line, 24 h incubation, read-out: LC50, 3T3
Procedure: Prostate cancer cell lines (CL1 and 22RV1; ATCC, USA) were grown in RPMI-1640 supplemented with 10% FCS (Biological Industries, Beit Haemek, Israel). N1H-3T3 mouse fibroblast cell line (ATCC, USA) was grown in DMEM supplemented with 10% bovine serum. To test cytotoxicity against the cancer cells, aliquots of medium containing 1×10^4 cells were distributed into a 96-well plate (Falcon). After one day, the media were replaced with 90 μl of fresh media and 10 μl of a solution containing different concentrations of the peptides. The plate was then incubated for 24 h before adding to each well 50 μl of XTT reaction solution (Biological Industries, Beit Haemek, Israel); viability was determined as previously described (Papo et al., (2003) J. Biol. Chem. 278:21018-23). The LC50 (concentration at which 50% of the cells die) for each peptide was obtained from the dose-dependent cell viability curves.

[3] = tested on: Aspergillus fumigatus ATCC 26430; assay: microbe, parasite or virus in culture
[4] = tested on: Cryptococcus neoformans ATCC 66031; assay: microbe, parasite or virus in culture
Summary of the method: (§1)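 MIC = lowest concentration giving 100% growth inhibition by A620 after 24-48 h at 35 °C with agitation. Inoculum: 1×10^4 CFU/ml (pre-mix) in RPMI 1640/0.165 M MOPS; pH 7.4 by default, 5.5 where noted. Peptide as twofold dilution series in water.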

[5] = tested on: Candida albicans ATCC 10231; assay: microbe, parasite or virus in culture
Summary of the method: as §1

[6] = tested on: E. coli D21
[7] = tested on: Staphylococcus aureus ATCC 6538P
Summary of the method: (§2)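 Lipopeptides were serially diluted 2-fold in water and combined with an equal volume of bacterial suspension (1×10^6 CFU/ml) in LB medium, normally at pH 7.4. Plates were incubated 18-20 h at 37° C, absorbance at 600 nm was measured, and the MIC was taken as the concentration fully inhibiting growth.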

[8] = tested on: E. aerogenes ATCC 35029; settings: ATCC 35029, pH 7.4
Summary of the method: as §2

[9] = tested on: Acinetobacter baumannii ATCC 19606
Summary of the method: as §2

[10] = tested on: Escherichia coli ATCC 25922
Summary of the method: as §2

[11] = tested on: E. coli ATCC 35218; settings: ATCC 35218, pH 7.4
Summary of the method: as §2

[12] = tested on: Pseudomonas aeruginosa ATCC 27853
Summary of the method: as §2

[13] = tested on: M. laleus; settings: Table 3, short lipopeptides; pH 7.4
Summary of the method: as §2

[14] = Table 3, short lipopeptides, pH 7.4

Molecule: CCCCCCCCCCCC(=O)N[C@H](CC(C)C)C(=O)N[C@@H](CCCCN)C(=O)N[C@@H](CCCCN)C(=O)N[C@H](CC(C)C)C(=O)N[C@H](CC(C)C)C(=O)N[C@@H](CCCCN)C(=O)N[C@@H](CCCCN)C(=O)N[C@H](CC(C)C)C(=O)N[C@H](CC(C)C)C(=O)N[C@@H](CCCCN)C(=O)N[C@@H](CCCCN)C(=O)N[C@H](CC(C)C)C(N)=O [lipopeptide 22, (CH3-(CH2)10-CO-)-D-Leu-Lys-Lys-D-Leu-D-Leu-Lys-Lys-D-Leu-D-Leu-Lys-Lys-D-Leu-NH2] (Lauroyl-[dL]KK[dL][dL]KK[dL][dL]KK[dL]-NH2)
- Minimal Inhibitory Concentration, C. neoformans ATCC MYA-422 [1]: 0.78 µM
- CC50 at 24 h [2]: 50 µM
- MIC ([3]; ATCC 26430, pH 5.5, read-out: Minimal inhibitory concentrations, A. Fumig. With serum): 100 µM (≈ 165 µg/mL)
- MIC ([3]; ATCC 26430, pH 5.5, read-out: Minimal inhibitory concentrations, A. Fumig. Without serum): 75 µM (≈ 124 µg/mL)
- Minimal Inhibitory Concentration, A. fumigatus ATCC 26430 ([3]; ATCC 26430, pH 7.4): 6.25 µM
- MIC ([3]; ATCC 26430, pH 7.4, read-out: Minimal inhibitory concentrations, A. Fumig. With serum): 50 µM (≈ 82.4 µg/mL)
- MIC ([3]; ATCC 26430, pH 7.4, read-out: Minimal inhibitory concentrations, A. Fumig. Without serum): 12.5 µM (≈ 20.6 µg/mL)
- MIC ([4]; ATCC 66031, pH 5.5, read-out: Minimal inhibitory concentrations, C. Neofor. With serum): 1.56 µM (≈ 2.57 µg/mL)
- MIC ([4]; ATCC 66031, pH 5.5, read-out: Minimal inhibitory concentrations, C. Neofor. Without serum): <0.78 µM
- MIC ([4]; ATCC 66031, pH 7.4, read-out: Minimal inhibitory concentrations, C. Neofor. With serum): <0.78 µM
- MIC ([4]; ATCC 66031, pH 7.4, read-out: Minimal inhibitory concentrations, C. Neofor. Without serum): <0.78 µM
- MIC ([5]; ATCC 10231, pH 5.5, read-out: Minimal inhibitory concentrations, C. Albicans With serum): >100 µM
- MIC ([5]; ATCC 10231, pH 5.5, read-out: Minimal inhibitory concentrations, C. Albicans Without serum): 100 µM (≈ 165 µg/mL)
- Minimal Inhibitory Concentration, C. albicans ATCC 10231 ([5]; ATCC 10231, pH 7.4): 12.5 µM
- MIC ([5]; ATCC 10231, pH 7.4, read-out: Minimal inhibitory concentrations, C. Albicans With serum): 100 µM (≈ 165 µg/mL)
- MIC ([5]; ATCC 10231, pH 7.4, read-out: Minimal inhibitory concentrations, C. Albicans Without serum): 3.125 µM (≈ 5.15 µg/mL)
- Minimal inhibitory concentrations, E. Coli D21 ([6]; D21, pH 5.5): 25 µM (≈ 41.2 µg/mL)
- Minimal inhibitory concentrations, E. Coli D21 ([6]; D21, pH 7.4): 25 µM (≈ 41.2 µg/mL)
- Minimal inhibitory concentrations, S. aureus II ATCC 6538P ([7]; ATCC 6538, pH 5.5): >100 µM
- Minimal Inhibitory Concentration, S. aureus ATCC 6538P ([7]; ATCC 6538, pH 7.4): 12.5 µM
- Minimal inhibitory concentrations, S. aureus II ATCC 6538P ([7]; ATCC 6538, pH 7.4): 3.125 µM (≈ 5.15 µg/mL)
- Minimal Inhibitory Concentration, E. aerogenes ATCC 35029 [8]: 50 µM
- Minimal inhibitory concentrations, A. baumannii ATCC 19606 ([9]; ATCC 19606, pH 5.5): 25 µM (≈ 41.2 µg/mL)
- Minimal inhibitory concentrations, A. baumannii ATCC 19606 ([9]; ATCC 19606, pH 7.4): 25 µM (≈ 41.2 µg/mL)
- Minimal inhibitory concentrations, E. Coli ATCC 25922 ([10]; ATCC 25922, pH 5.5): 50 µM (≈ 82.4 µg/mL)
- Minimal inhibitory concentrations, E. Coli ATCC 25922 ([10]; ATCC 25922, pH 7.4): 75 µM (≈ 124 µg/mL)
- Minimal Inhibitory Concentration, E. coli ATCC 35218 [11]: 25 µM
- Minimal inhibitory concentrations, P. Aeruginosa ATCC 27853 ([12]; ATCC 27853, pH 5.5): 12.5 µM (≈ 20.6 µg/mL)
- Minimal Inhibitory Concentration, P. aeruginosa ATCC 27853 ([12]; ATCC 27853, pH 7.4): 25 µM
- Minimal inhibitory concentrations, P. Aeruginosa ATCC 27853 ([12]; ATCC 27853, pH 7.4): 25 µM (≈ 41.2 µg/mL)

Molecule: CCCCCCCCCCCCCC(=O)N[C@H](CC(C)C)C(=O)N[C@@H](CCCCN)C(=O)N[C@@H](CCCCN)C(=O)N[C@H](CC(C)C)C(=O)N[C@H](CC(C)C)C(=O)N[C@@H](CCCCN)C(=O)N[C@@H](CCCCN)C(=O)N[C@H](CC(C)C)C(=O)N[C@H](CC(C)C)C(=O)N[C@@H](CCCCN)C(=O)N[C@@H](CCCCN)C(=O)N[C@H](CC(C)C)C(N)=O [lipopeptide 23, (CH3-(CH2)12-CO-)-D-Leu-Lys-Lys-D-Leu-D-Leu-Lys-Lys-D-Leu-D-Leu-Lys-Lys-D-Leu-NH2] (Myristoyl-[dL]KK[dL][dL]KK[dL][dL]KK[dL]-NH2)
- Minimal Inhibitory Concentration, C. neoformans ATCC MYA-422 [1]: 0.78 µM
- CC50 at 24 h [2]: 50 µM
- Minimal Inhibitory Concentration, A. fumigatus ATCC 26430 ([3]; ATCC 26430, pH 7.4): 1.56 µM
- Minimal Inhibitory Concentration, C. albicans ATCC 10231 ([5]; ATCC 10231, pH 7.4): 1.56 µM
- Minimal Inhibitory Concentration, S. aureus ATCC 6538P ([7]; ATCC 6538, pH 7.4): 50 µM
- Minimal Inhibitory Concentration, E. aerogenes ATCC 35029 [8]: >50 µM
- Minimal Inhibitory Concentration, E. coli ATCC 35218 [11]: 50 µM
- Minimal Inhibitory Concentration, P. aeruginosa ATCC 27853 ([12]; ATCC 27853, pH 7.4): 50 µM

Molecule: CCCCCCCCCCCCCCCC(=O)N[C@H](CC(C)C)C(=O)N[C@@H](CCCCN)C(=O)N[C@@H](CCCCN)C(=O)N[C@H](CC(C)C)C(=O)N[C@H](CC(C)C)C(=O)N[C@@H](CCCCN)C(=O)N[C@@H](CCCCN)C(=O)N[C@H](CC(C)C)C(=O)N[C@H](CC(C)C)C(=O)N[C@@H](CCCCN)C(=O)N[C@@H](CCCCN)C(=O)N[C@H](CC(C)C)C(N)=O [lipopeptide 24, (CH3-(CH2)14-CO-)-D-Leu-Lys-Lys-D-Leu-D-Leu-Lys-Lys-D-Leu-D-Leu-Lys-Lys-D-Leu-NH2] (Palmitoyl-[dL]KK[dL][dL]KK[dL][dL]KK[dL]-NH2)
- Minimal Inhibitory Concentration, C. neoformans ATCC MYA-422 [1]: 0.78 µM
- CC50 at 24 h [2]: 50 µM
- Minimal Inhibitory Concentration, A. fumigatus ATCC 26430 ([3]; ATCC 26430, pH 7.4): 1.56 µM
- Minimal Inhibitory Concentration, C. albicans ATCC 10231 ([5]; ATCC 10231, pH 7.4): 1.56 µM
- Minimal Inhibitory Concentration, S. aureus ATCC 6538P ([7]; ATCC 6538, pH 7.4): 50 µM
- Minimal Inhibitory Concentration, E. aerogenes ATCC 35029 [8]: >50 µM
- Minimal Inhibitory Concentration, E. coli ATCC 35218 [11]: 50 µM
- Minimal Inhibitory Concentration, P. aeruginosa ATCC 27853 ([12]; ATCC 27853, pH 7.4): >50 µM

Molecule: Gentamycin [reference compound]
- Minimal Inhibitory Concentration, E. coli-D21 [6, 14]: 1.56 µM
- Minimal inhibitory concentrations, E. Coli D21 ([6]; Table 6, pH 7.4): 12.5 µM
- Minimal inhibitory concentrations, E. Coli D21 ([6]; Table 7, pH 5.5): 12.5 µM
- Minimal Inhibitory Concentration, S. aureus ATCC 6538P [7, 14]: 6.25 µM
- Minimal inhibitory concentrations, S. aureus II ATCC 6538P ([7]; Table 6, pH 7.4): 12.5 µM
- Minimal inhibitory concentrations, S. aureus II ATCC 6538P ([7]; Table 7, pH 5.5): 25 µM
- Minimal Inhibitory Concentration, A. baumannii ATCC 19606 [9, 14]: 3.12 µM
- Minimal inhibitory concentrations, A. baumannii ATCC 19606 ([9]; Table 6, pH 7.4): 12.5 µM
- Minimal inhibitory concentrations, A. baumannii ATCC 19606 ([9]; Table 7, pH 5.5): 12.5 µM
- Minimal inhibitory concentrations, E. Coli ATCC 25922 ([10]; Table 6, pH 7.4): 6.25 µM
- Minimal inhibitory concentrations, E. Coli ATCC 25922 ([10]; Table 7, pH 5.5): 12.5 µM
- Minimal Inhibitory Concentration, P. aeruginosa ATCC 27853 [12, 14]: 0.78 µM
- Minimal inhibitory concentrations, P. Aeruginosa ATCC 27853 ([12]; Table 6, pH 7.4): 12.5 µM
- Minimal inhibitory concentrations, P. Aeruginosa ATCC 27853 ([12]; Table 7, pH 5.5): 12.5 µM
- Minimal Inhibitory Concentration, M. laleus [13]: 0.78 µM
